Results as given in article PMC5920098, “Identification of the allosteric P2X7 receptor antagonist [^11C]SMW139 as a PET tracer of microglial activation” (Scientific Reports, 2018).
Where “and” joins values, the source holds several entries; their conditions need not be identical. Identical values can stand only once. Entries after “also recorded” stand apart in the source; their conditions may differ.

Legend:
[1] = Plasma metabolite analysis in female rAAV-hP2X7R rats; type: in vivo; conditions: female rat
Protocol: In vivo stability of analogues [^11C]1–3 and [^11C]SMW139 was assessed in healthy male Wistar rats at 15 and 45 minutes after injection of 30–40 MBq of formulated tracer. […] Results obtained in plasma correspond with previously reported stability results in rat liver microsomes. A higher level of intact tracer was found in brain (Table 3) for [^11C]1 and [^11C]SMW139 compared with [^11C]2 and [^11C]3. Despite optimisation of the extraction method, the percentage of total radioactivity that could be extracted from brain homogenates was not optimal for all four compounds (59 ± 6% for [^11C]1; 58 ± 7% for [^11C]2; 61 ± 4% for [^11C]3; 62 ± 3% for [^11C]SMW139). Therefore, based on its highest stability in plasma in vivo, [^11C]SMW139 was selected for further in vivo studies. As imaging studies were performed in female rats, plasma metabolites were also determined in two female rats, and no differences were found between plasma metabolism of [^11C]SMW139 in male and female rats (Table S1; Supplementary Information). […]
(§1) Ex vivo metabolite analysis
(§2) Healthy male and female Wistar rats (254-440 g) were injected with 30-40 MBq (at start of experiment) of formulated tracer in the tail vein under isoflurane anaesthesia. Rats were sacrificed at 15 and 45 min (n = 3 per time point). Blood samples were obtained and the brain was excised. Blood samples were collected in heparin tubes (BD Vacutainer NH 119 I.U., 7 mL, BD Vacutainer Systems, Plymouth, UK) and centrifuged at 4,000 rpm for 5 min at 4 °C (Hettich Universal 32, Andreas Hettich GmbH & Co.KG, Tuttlingen, Germany). Plasma supernatant was separated from blood cells and loaded onto a tC18 Sep-Pak (Waters, Milford, MA, USA), followed by washing with 3 mL of water to obtain the polar fraction. The non-polar fraction was then eluted with 2 mL of MeOH and 1 mL of water and further analysed by HPLC. The brain was put in a falcon tube containing 4 mL MeCN/H2O (50:50 v/v) and homogenised with a disperser (IKA T18 B Ultra-Turrax, IKA®-Werke GmbH & Co.KG, Staufen, Germany) before centrifugation (5 min, 4,000 rpm, 20 °C, Hettich Universal 32). Supernatant was separated from brain precipitate and analysed by HPLC. Analytical HPLC was performed with Dionex (Sunnyvale, CA, USA) UltiMate 3000 HPLC equipment with Chromeleon software (version 6.8) on a Gemini C18 5-µm (10 x 250 mm) column (Phenomenex, Torrance, CA, USA) with gradient and a mixture of MeCN (A) and 0.1% DIPA in water (B) as eluent according to the following scheme: 0 min, […]
(§3) 0.25 mL·min-1. All separate fractions were counted for radioactivity in a Wizard Gammacounter 1470 or 2480 (Wallac/PerkinElmer, Waltham, MA, USA).
Table S1: Metabolic profile of [11C]SMW139 in female rAAV-hP2X7R rats. […]

mouse P2X7R = system: mouse P2X7R; design: method as in PMID 28841278; conditions: cited from earlier work
P2X7R = biological target: T1, P2X7R (Homo sapiens, UniProt Q99572); test: In vitro autoradiography on post mortem human brain tissue (AD patients and controls); type: binding; conditions: tracer 28 nM
T1 construct: Snap frozen human post-mortem; tissue The Netherlands Brain Bank; host or cells: post mortem human temporal cortex (AD patients and non-neurological controls)
T1 sequence (Q99572 1-595): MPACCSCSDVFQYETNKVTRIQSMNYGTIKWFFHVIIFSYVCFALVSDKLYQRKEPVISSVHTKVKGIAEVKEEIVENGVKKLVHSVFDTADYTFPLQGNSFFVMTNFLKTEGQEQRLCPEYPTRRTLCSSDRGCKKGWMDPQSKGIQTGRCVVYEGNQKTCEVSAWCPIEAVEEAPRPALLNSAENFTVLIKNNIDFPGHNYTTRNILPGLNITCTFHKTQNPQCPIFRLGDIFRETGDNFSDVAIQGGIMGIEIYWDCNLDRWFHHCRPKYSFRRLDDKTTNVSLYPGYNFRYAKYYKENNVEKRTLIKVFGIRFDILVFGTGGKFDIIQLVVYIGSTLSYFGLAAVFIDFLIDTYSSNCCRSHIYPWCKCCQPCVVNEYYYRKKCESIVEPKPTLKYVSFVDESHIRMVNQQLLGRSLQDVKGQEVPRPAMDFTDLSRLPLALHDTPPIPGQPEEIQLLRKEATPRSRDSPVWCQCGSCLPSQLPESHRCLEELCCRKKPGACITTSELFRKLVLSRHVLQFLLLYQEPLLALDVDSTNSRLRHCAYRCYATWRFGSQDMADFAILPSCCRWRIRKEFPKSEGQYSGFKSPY

[2] = Ex vivo metabolite analysis (plasma and brain) in healthy male Wistar rats; design: species or system rat
Protocol: In vivo stability of analogues [^11C]1–3 and [^11C]SMW139 was assessed in healthy male Wistar rats at 15 and 45 minutes after injection of 30–40 MBq of formulated tracer. […] Results obtained in plasma correspond with previously reported stability results in rat liver microsomes. A higher level of intact tracer was found in brain (Table 3) for [^11C]1 and [^11C]SMW139 compared with [^11C]2 and [^11C]3. Despite optimisation of the extraction method, the percentage of total radioactivity that could be extracted from brain homogenates was not optimal for all four compounds (59 ± 6% for [^11C]1; 58 ± 7% for [^11C]2; 61 ± 4% for [^11C]3; 62 ± 3% for [^11C]SMW139). Therefore, based on its highest stability in plasma in vivo, [^11C]SMW139 was selected for further in vivo studies. As imaging studies were performed in female rats, plasma metabolites were also determined in two female rats, and no differences were found between plasma metabolism of [^11C]SMW139 in male and female rats (Table S1; Supplementary Information).
For each of the carbon-11 labelled benzamide analogues [^11C]1–3 and [^11C]SMW139, a biodistribution study and metabolite analysis in healthy male Wistar rats was performed, as described in detail in the Supplementary Information. Briefly, tracer distribution in blood, brain, and peripheral organs was measured at 5, 15, 30 and 45 min after intravenous injection of 13–23 MBq of formulated tracer. Metabolite analysis was performed at 15 and 45 min after intravenous injection of 30–40 MBq of formulated tracer in both blood plasma and brain. […]
as §1, §2, §3

[3] = biological target: T2, human P2X7 receptor (hP2X7R) (Homo sapiens, UniProt Q99572); test: In vitro autoradiography on rat brain cryosections locally overexpressing hP2X7R; conditions: tracer 28 nM
T2 sequence (Q99572 1-595): T1 sequence (Q99572 1-595)
Protocol: Snap frozen brain tissue was cut on a cryostat into 20 μm sections.
Stereotactic injection of viral vector
Female Wistar rats (n=7) were anaesthetised by intraperitoneal (i.p.)
injection of ketamine (75 mg·kg-1); Ketalar, Pfizer, Brussels, Belgium) and medetomidin (1 mg·kg-1;
Domitor, Pfizer) and positioned in a stereotactic head frame (Stoelting, Wood Dale, IL, USA). Right and
left striatum were injected with 4 µL of the hP2X7R vector (rAAV_3flag-hP2X7R) and of the control
vector (rAAV_3flag-eGFP), respectively, at a rate of 0.25 µL·min-1, using a 30-gauge needle connected
to a 10 µL Hamilton syringe. Coordinates used for striatal injection of the hP2X7R vector were:
anteroposterior 0 cm, lateral -0.28 cm and dorsoventral -0.64 cm relative to bregma. Coordinates
used for striatal injection of the eGFP vector were: anteroposterior 0 cm, lateral +0.28 cm and
dorsoventral -0.64 cm relative to bregma. After injection, the needle was kept in place for another 5
minutes before removing it slowly. To reverse the anaesthesia, the rats were injected intraperitoneally
with 0.5 mg·kg-1 atipamezol (Antisedan, Orion Pharma, Newburry, Berkshire, UK).
Rats were sacrificed for in
vitro autoradiography at 3 (n=2) and 12 (n=5) weeks after vector injection.
Snap frozen brains of female Wistar rats (rAAV_3flag-hP2X7R in right striatum; rAAV_3flag-eGFP in left
striatum; sacrificed 3 weeks (n = 2) or 12 weeks (n = 5) after vector injection) were cut on a Leica
CM3050 S cryostat (Leica Biosystems, Nussloch, Germany) at -19 °C in transversal sections of 20 µm,
thaw-mounted on SuperFrostTM Plus (Thermo Fisher Scientific, Waltham, MA, USA) object glasses,
dried overnight on silica at 4 °C and then stored at -20 °C until use.
Upon use, sections were thawed to room temperature for an hour
before washing the sections in 5 mM Tris-HCl buffer (pH 7.4) at room temperature (3x 5 min). Sections
were dried in a cold stream of air before incubation (30 min) with 5 mM Tris-HCl buffer (pH 7.4)
concentration. After incubation, sections were washed (3x 1.5 min) in ice-cold 5 mM Tris-HCl buffer
(pH 7.4) followed by a dip in ice-cold demineralised water. Sections were dried in a stream of air and
then exposed to a storage phosphor screen (BAS-IP SR 2040 E, GE Healthcare Europe GmbH,
Eindhoven, the Netherlands) and the screen was read out on a Typhoon FLA 7000 phosphor imager
(GE Healthcare Europe GmbH, Eindhoven, the Netherlands).
quantified using ImageQuantTL Analysis Toolbox (version 8.1, GE Healthcare). In case of the rat brain
sections, regions of interest (ROIs) were defined around the striatum. […] Results are expressed as mean intensity, or as
percentage of tracer binding, relative to total tracer binding in the contralateral striatum. Experiments
with rAAV_3flag-hP2X7R injected rat brains were performed as a duplicate of quadruplicates.
Statistical analysis of quantitative autoradiography data (unpaired t test, two-tailed) was performed

## [11CH3]Oc1ccc(Cl)c(C(=O)NCC23CC4(F)CC(F)(CC(F)(C4)C2)C3)c1 [[^11C]SMW139]
[1]; Rat 1, 15 min
  Intact tracer (%): 78%
[1]; Rat 1, 45 min
  Intact tracer (%): 50%
[1]; Rat 2, 15 min
  Intact tracer (%): 63%
[1]; Rat 2, 45 min
  Intact tracer (%): 32%
Mouse P2X7R
  Affinity lower for mouse P2X7R compared with hP2X7R: 6 fold
P2X7R; AD patients and controls
  Tracer binding in white matter vs grey matter: Higher tracer binding was observed in white matter compared with grey matter; also recorded: higher in white matter than in grey matter
P2X7R; temporal cortex, grey and white matter
  Tracer binding in AD patients vs non-neurological controls: does not differ significantly; also recorded: did not differ significantly; also recorded: no significant differences
[2]; rat brain, 15 min p.i.
  Intact tracer (%): 79 ± 1%
[2]; rat brain, 45 min p.i.
  Intact tracer (%): 66 ± 2%
[2]; rat plasma, 15 min p.i., male Wistar rats
  Intact tracer (%): 60 ± 1%
[2]; rat plasma, 45 min p.i., male Wistar rats
  Intact tracer (%): 42% and 42 ± 2%
[3]
  Mean intensity of tracer binding in rAAV_3flag-eGFP injected striatum: 69 ± 10 counts
  Mean intensity of tracer binding in rAAV_3flag-hP2X7R injected striatum: 678 ± 55 counts
[3]; n = 2
  Increased binding in rAAV_3flag-hP2X7R injected striatum vs rAAV_3flag-eGFP injected striatum: 10 ± 2 fold and 10 fold
